Drawing on patent US20240174680A1, “CDK2 INHIBITORS AND METHODS OF USING THE SAME” (Cedilla Therapeutics, Inc., priority 2021, published 2024), this text covers IC50 for 35 compounds.

The assay deals with CDK2/Cyclin E1 (Homo sapiens, UniProt P24941). The assay can be described thus: CDK2/Cyclin E1 Caliper LabChip EZ Reader mobility shift assay. The assay is classed as biochemical. More on the design: purchased Eurofins 14-475. The note with it: read-out: Caliper Assay (CDK2/CCNE1): IC50. The gist of the method:
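Substrate-to-product conversion of fluorescent peptide (1.5 μM final) read by capillary electrophoresis after 100 min reaction, EDTA-quenched. Enzyme (2.5 nM final) and ATP (100 μM final) were preincubated 30 min with inhibitor dilutions first. % activity vs concentration fitted four-parameter for IC50.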

In the case of `CNC(=O)[C@@H](NC(=O)[C@H]1CN(C(=O)c2scnc2C)CC12CN(C(=O)[C@H]1CC1(C)C)C2)[C@@H](C)OCC1CCCCC1` [I-160B], the IC50 is over 10 µM.

For `CNC(=O)[C@@H](NC(=O)[C@@H]1CN(C(=O)c2cnc(C(F)(F)F)s2)CC12CN(C(=O)[C@H]1CC1(C)C)C2)[C@@H](C)OCC1CCCCC1` [I-161A], the IC50 was over 10 µM. In the case of `CNC(=O)[C@@H](NC(=O)[C@H]1CN(C(=O)c2cnc(C(F)(F)F)s2)CC12CN(C(=O)[C@H]1CC1(C)C)C2)[C@@H](C)OCC1CCCCC1` [I-161B], the IC50 is over 10 µM. On to `CNC(=O)[C@@H](NC(=O)[C@@H]1CN(C(=O)c2sc(COC)nc2C)CC12CN(C(=O)[C@H]1CC1(C)C)C2)[C@@H](C)OCC1CCCCC1` [I-162A], for which the IC50 lay within 0.01 to 0.1 µM. Turning to `CNC(=O)[C@@H](NC(=O)[C@H]1CN(C(=O)c2sc(COC)nc2C)CC12CN(C(=O)[C@H]1CC1(C)C)C2)[C@@H](C)OCC1CCCCC1` [I-162B], the IC50 is over 10 µM.

For `CNC(=O)[C@@H](NC(=O)[C@@H]1CN(C(=O)c2scnc2C(F)(F)F)CC12CN(C(=O)[C@H]1CC1(C)C)C2)[C@@H](C)OCC1CCCCC1` [I-163A], the IC50 is over 10 µM.

In the case of `CNC(=O)[C@@H](NC(=O)[C@H]1CN(C(=O)c2scnc2C(F)(F)F)CC12CN(C(=O)[C@H]1CC1(C)C)C2)[C@@H](C)OCC1CCCCC1` [I-163B], the IC50 is over 10 µM. Next, `C[C@@H](OCC1CCC(F)(F)CC1)[C@H](NC(=O)[C@@H]1CN(C(=O)c2cnn(Cc3ccc(F)cc3)c2)CC12CN(C(=O)[C@H]1CC1(C)C)C2)C(=O)N1CCC(F)(F)CC1` [I-164A]: at most 0.01 µM; `C[C@@H](OCC1CCC(F)(F)CC1)[C@H](NC(=O)[C@H]1CN(C(=O)c2cnn(Cc3ccc(F)cc3)c2)CC12CN(C(=O)[C@H]1CC1(C)C)C2)C(=O)N1CCC(F)(F)CC1` [I-164B]: 0.01 to 0.1 µM; `CNC(=O)[C@@H](NC(=O)[C@H]1CN(C(=O)c2cnn(Cc3ccccc3)c2)CC12CN(C(=O)[C@H]1CC1(C)C)C2)[C@H](C)OCC1CCCCC1` [I-165]: over 10 µM. The figure for `CNC(=O)[C@@H](NC(=O)[C@@H]1CN(C(=O)c2cnn(Cc3ccccc3)c2)CC12CN(C(=O)[C@H]1CC1(C)C)C2)[C@@H](C)OCC1CCCCCC1` [I-166A] is at most 0.01 µM.

As to `CNC(=O)[C@@H](NC(=O)[C@H]1CN(C(=O)c2cnn(Cc3ccccc3)c2)CC12CN(C(=O)[C@H]1CC1(C)C)C2)[C@@H](C)OCC1CCCCCC1` [I-166B], the IC50 is 0.1 to 1 µM. The figure for `CNC(=O)[C@@H](NC(=O)[C@H]1CN(C(=O)c2cnn(Cc3ccc(F)cc3)c2)CC12CN(C(=O)[C@H]1CC1(C)C)C2)[C@@H](C)OCC1CCC(F)(F)CC1` [I-167] is 0.1 to 1 µM; for `CC1(C)C[C@@H]1C(=O)N1CC2(CN(C(=O)c3cnn(Cc4ccccc4)c3)C[C@@H]2C(=O)Nc2ccc(Cc3ccccc3)nc2)C1` [I-168] it is 1 to 10 µM; for `CNC(=O)[C@@H](NC(=O)[C@@H]1CN(C(=O)c2nccs2)CC12CN(C(=O)[C@H]1CC1(C)C)C2)[C@@H](C)OCC1CCCCC1` [I-169] it is over 10 µM. The figure for `CNC(=O)[C@@H](NC(=O)[C@@H]1CN(C(=O)c2cnn(Cc3ccc(F)cc3)c2)CC12CN(C(=O)[C@H]1CC1(C)C)C2)[C@@H](C)OCC1CCC(F)(F)CC1` [I-170] is at most 0.01 µM; for `CNC(=O)[C@@H](NC(=O)[C@@H]1CN(C(=O)c2cnn(Cc3ccccc3)c2)CC12CN(C(=O)[C@H]1CC1(C)C)C2)C(C)(C)SCc1ccccc1` [I-171A, (S)-6-(1-benzyl-1H-pyrazole-4-carbonyl)-N—((R)-3-(benzylthio)-3-methyl-1-(methylamino)-1-oxobutan-2-yl)-2-((S)-2,2-dimethylcyclopropane-1-carbonyl)-2,6-diazaspiro[3.4]octane-8-carboxamide] it is 0.1 to 1 µM.

Consider `CNC(=O)[C@@H](NC(=O)[C@H]1CN(C(=O)c2cnn(Cc3ccccc3)c2)CC12CN(C(=O)[C@H]1CC1(C)C)C2)C(C)(C)SCc1ccccc1` [I-171B], for which the IC50 was over 10 µM. `C[C@@H]1C[C@H](C)CN(C(=O)[C@@H](NC(=O)C2CN(C(=O)c3cncs3)CC23CN(C(=O)[C@H]2CC2(C)C)C3)[C@@H](C)OCC2CCCCC2)C1` (some centres unmarked) [I-172]: the IC50 was at most 0.01 µM. The figure for `CNC(=O)[C@@H](NC(=O)[C@@H]1CN(C(=O)c2cnn(Cc3ccccc3)c2)CC12CN(C(=O)C(C)(C)C)C2)[C@@H](C)OCC1CCCCC1` [I-174A] is 0.01 to 0.1 µM. On to `CNC(=O)[C@@H](NC(=O)[C@H]1CN(C(=O)c2cnn(Cc3ccccc3)c2)CC12CN(C(=O)C(C)(C)C)C2)[C@@H](C)OCC1CCCCC1` [I-174B], for which the IC50 is 0.1 to 1 µM.

For the compound `CNC(=O)[C@@H](NC(=O)[C@@H]1CN(C(=O)c2cnc(COC(C)(C)C)s2)CC12CN(C(=O)[C@H]1CC1(C)C)C2)[C@@H](C)OCC1CCCCC1` [I-175A], the IC50 was at most 0.01 µM.

With `CNC(=O)[C@@H](NC(=O)[C@H]1CN(C(=O)c2cnc(COC(C)(C)C)s2)CC12CN(C(=O)[C@H]1CC1(C)C)C2)[C@@H](C)OCC1CCCCC1` [I-175B], the IC50 was in the range of 0.1 to 1 µM. Next, `C[C@@H](OCc1ccccc1)[C@H](NC(=O)[C@@H]1CN(C(=O)c2cnn(Cc3ccccc3)c2)CC12CN(C(=O)[C@H]1CC1(C)C)C2)C(N)=O` [I-176A]: 0.01 to 0.1 µM; `C[C@@H](OCc1ccccc1)[C@H](NC(=O)[C@H]1CN(C(=O)c2cnn(Cc3ccccc3)c2)CC12CN(C(=O)[C@H]1CC1(C)C)C2)C(N)=O` [I-176B]: 1 to 10 µM; `CNC(=O)[C@@H](NC(=O)[C@@H]1CN(C(=O)c2cnc(CC3CC3)s2)CC12CN(C(=O)[C@H]1CC1(C)C)C2)[C@@H](C)OCC1CCCCC1` [I-177A]: 0.1 to 1 µM. Next, `CNC(=O)[C@@H](NC(=O)[C@H]1CN(C(=O)c2cnc(CC3CC3)s2)CC12CN(C(=O)[C@H]1CC1(C)C)C2)[C@@H](C)OCC1CCCCC1` [I-177B]: 1 to 10 µM; `CNC(=O)[C@@H](NC(=O)[C@@H]1CN(C(=O)c2cnc(C3CC3)s2)CC12CN(C(=O)[C@H]1CC1(C)C)C2)[C@@H](C)OCC1CCCCC1` [I-178A]: 0.1 to 1 µM. Consider `CNC(=O)[C@@H](NC(=O)[C@H]1CN(C(=O)c2cnc(C3CC3)s2)CC12CN(C(=O)[C@H]1CC1(C)C)C2)[C@@H](C)OCC1CCCCC1` [I-178B], for which the IC50 was over 10 µM.

Turning to `CN(C(=O)[C@H]1CCCN(C(=O)[C@@H]2CN(C(=O)c3cnn(Cc4ccccc4)c3)CC23CN(C(=O)[C@H]2CC2(C)C)C3)C1)C1CCCCC1` [I-179], the IC50 is 1 to 10 µM. As for `CC1(C)C[C@@H]1C(=O)N1CC2(CN(C(=O)c3cnn(Cc4ccccc4)c3)C[C@H]2C(=O)N2CCC[C@H](C(=O)NC3CCCCC3)C2)C1` [I-180], the IC50 was in the range of 0.1 to 1 µM. Next, `CN(C(=O)[C@@H]1CCCN(C(=O)[C@@H]2CN(C(=O)c3cnn(Cc4ccccc4)c3)CC23CN(C(=O)[C@H]2CC2(C)C)C3)C1)C1CCCCC1` [I-181]: 1 to 10 µM. Next, `CC1(C)C[C@@H]1C(=O)N1CC2(CN(C(=O)c3cnn(Cc4ccccc4)c3)C[C@H]2C(=O)N[C@H]2CCCN(C(=O)C3CCCCC3)C2)C1` [I-182]: 1 to 10 µM; `CC1(C)C[C@@H]1C(=O)N1CC2(CN(C(=O)c3cnn(Cc4ccccc4)c3)C[C@H]2C(=O)N[C@H]2CCCN(CC3CCCCC3)C2)C1` [I-183]: over 10 µM. For `CNC(=O)[C@@H](NC(=O)[C@@H]1CN(C(=O)c2c[nH]c(=O)s2)CC12CN(C(=O)[C@H]1CC1(C)C)C2)[C@@H](C)OCC1CCCCC1` [I-184], the IC50 lay in the range of 0.1 to 1 µM.
